Earlier results on one compound are cited in patent publication US10751291B2, “Nanoparticulate compositions comprising interferon gamma and losartan for immunotherapy” (Yale University, priority 2013, dated 2020).

The conditions of this series: oral administration.

The structures appear in SMILES notation.

`CCCCc1nc(Cl)c(CO)n1Cc1ccc(-c2ccccc2-c2nn[nH]n2)cc1` [Losartan]: the oral absorption result is “well absorbed”.
